# Reference: paper PMC11331526 (2024)
# Test system: d(G5C5)2 (G5C5) (DNA, duplex) GGGGGCCCCC
# Assay: emission titration, Bard fit
# Details: 50 mM potassium phosphate, pH 7, 298 K, table title per base pair, fit per nucleotide
"Kb (site size 3.4, text prints 10^5)","Kb (site size 2.6, text error ±0.6)",Structure (SMILES)
9.4(±1.2) × 10^6 M^-1,,[Ru+2].c1ccc2c(c1)ccc1nc3c4cccnc4c4ncccc4c3nc12.c1cnc2c(ccc3nccnc32)n1.c1cnc2c(ccc3nccnc32)n1
,2.5(±0.4) × 10^6 M^-1,[Ru+2].c1ccc2cc3nc4c5cccnc5c5ncccc5c4nc3cc2c1.c1cnc2c(ccc3nccnc32)n1.c1cnc2c(ccc3nccnc32)n1
